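Five concentrations, 48 hours, 96-well plates. At the GI50, growth is halved.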 Activity calls are given as the source filed them. Cut-off read from the data, not from the text of the source: active = GI50 up to about 1.1 µM and inactive = higher.
Experiments:
Assay in all cases: growth of human tumour cells (NCI), 48 h
MDA-MB-231 = tested on: MDA-MB-231
RXF 393 = tested on: RXF 393
LOX IMVI = tested on: LOX IMVI
KM12 = tested on: KM12
HCC 2998 = tested on: HCC 2998
NCI-H522 = tested on: NCI-H522
MCF7 = tested on: MCF7
HCT-15 = tested on: HCT-15
NCI/ADR-RES = tested on: NCI/ADR-RES
OVCAR-5 = tested on: OVCAR-5
MDA-N = tested on: MDA-N
SK-MEL-28 = tested on: SK-MEL-28
HL-60 = tested on: HL-60
SF-539 = tested on: SF-539
NCI-H226 = tested on: NCI-H226
A549 = tested on: A549
SK-MEL-2 = tested on: SK-MEL-2
SF-268 = tested on: SF-268
IGROV-1 = tested on: IGROV-1
RPMI-8226 = tested on: RPMI-8226
CAKI-1 = tested on: CAKI-1
MDA-MB-435 = tested on: MDA-MB-435
EKVX = tested on: EKVX
OVCAR-4 = tested on: OVCAR-4
HOP-62 = tested on: HOP-62
U-251 = tested on: U-251
TK-10 = tested on: TK-10
SN12C = tested on: SN12C
SK-OV-3 = tested on: SK-OV-3
UACC-257 = tested on: UACC-257
HOP-92 = tested on: HOP-92
CCRF-CEM = tested on: CCRF-CEM
DU-145 = tested on: DU-145
COLO 205 = tested on: COLO 205
SNB-75 = tested on: SNB-75
OVCAR-8 = tested on: OVCAR-8
PC-3 = tested on: PC-3
SF-295 = tested on: SF-295
NCI-H460 = tested on: NCI-H460
Malme-3M = tested on: Malme-3M
SNB-19 = tested on: SNB-19
MOLT-4 = tested on: MOLT-4
M14 = tested on: M14
BT-549 = tested on: BT-549
ACHN = tested on: ACHN
T47D = tested on: T47D
786-0 = tested on: 786-0
HCT-116 = tested on: HCT-116
OVCAR-3 = tested on: OVCAR-3
SW-620 = tested on: SW-620
HT-29 = tested on: HT-29
NCI-H23 = tested on: NCI-H23
UACC-62 = tested on: UACC-62
K562 = tested on: K562
A498 = tested on: A498
UO-31 = tested on: UO-31
SK-MEL-5 = tested on: SK-MEL-5
SR = tested on: SR

With S=C(NCc1ccccc1)c1nc[nH]c1C(=S)NCc1ccccc1 the GI50 (MDA-MB-231) was 10 µM (inactive), the GI50 (RXF 393) was 11.1 µM (inactive) and the GI50 (LOX IMVI) was 4.72 µM (inactive). For the same compound, the GI50 (KM12) was 6.07 µM (inactive), the GI50 (HCC 2998) was 10 µM (inactive) and the GI50 (NCI-H522) was 3.58 µM (inactive). For the same compound, the GI50 (MCF7) was 2.55 µM (inactive), the GI50 (HCT-15) was 3.83 µM and the GI50 (NCI/ADR-RES) was 3.41 µM (inactive). The GI50 (OVCAR-5) was 6.98 µM (inactive), the GI50 (MDA-N) was 7.74 µM (inactive) and the GI50 (SK-MEL-28) was 12.4 µM (inactive). The GI50 (HL-60) was 7.69 µM (inactive), the GI50 (SF-539) was 10.4 µM (inactive) and the GI50 (NCI-H226) was 1.78 µM (inactive). For the same compound, the GI50 (A549) was 3.89 µM (inactive), the GI50 (SK-MEL-2) was 9.08 µM (inactive) and the GI50 (SF-268) was 6.19 µM (inactive). For the same compound, the GI50 (IGROV-1) was 5.08 µM (inactive), the GI50 (RPMI-8226) was 5.19 µM (inactive) and the GI50 (CAKI-1) was 5.47 µM (inactive). The GI50 (MDA-MB-435) was 6.62 µM (inactive), the GI50 (EKVX) was 4.34 µM (inactive) and the GI50 (OVCAR-4) was 6.65 µM (inactive). For the same compound, the GI50 (HOP-62) was 10 µM (inactive), the GI50 (U-251) was 5.87 µM (inactive) and the GI50 (TK-10) was 10.5 µM (inactive). For the same compound, the GI50 (SN12C) was 11.7 µM (inactive), the GI50 (SK-OV-3) was 12.7 µM (inactive) and the GI50 (UACC-257) was 10.1 µM (inactive). The GI50 (HOP-92) was 1.88 µM (inactive), the GI50 (CCRF-CEM) was 2.96 µM (inactive) and the GI50 (DU-145) was 9.27 µM (inactive). The GI50 (COLO 205) was 3.48 µM (inactive), the GI50 (SNB-75) was 6.12 µM (inactive) and the GI50 (OVCAR-8) was 4.49 µM (inactive). For the same compound, the GI50 (PC-3) was 7.82 µM (inactive), the GI50 (SF-295) was 4.57 µM (inactive) and the GI50 (NCI-H460) was 4.06 µM (inactive). The GI50 (Malme-3M) was 11 µM (inactive), the GI50 (SNB-19) was 5.4 µM (inactive) and the GI50 (MOLT-4) was 4.85 µM (inactive). For the same compound, the GI50 (M14) was 5.55 µM (inactive), the GI50 (BT-549) was 13.3 µM (inactive) and the GI50 (ACHN) was 2.69 µM (inactive). For the same compound, the GI50 (T47D) was 4.35 µM (inactive), the GI50 (786-0) was 5.96 µM (inactive) and the GI50 (HCT-116) was 5.64 µM (inactive). The GI50 (OVCAR-3) was 6 µM (inactive), the GI50 (SW-620) was 4.98 µM (inactive) and the GI50 (HT-29) was 6.84 µM (inactive). The GI50 (NCI-H23) was 6.93 µM (inactive), the GI50 (UACC-62) was 3.2 µM (inactive) and the GI50 (K562) was 4.4 µM (inactive).
For CC(=O)Nc1ccc(N2C(=O)/C(=C\c3cccc(Oc4ccccc4)c3)S(=O)(=O)C2c2ccccc2)cc1 (stereo unspecified), the GI50 (MDA-MB-231) was > 100 µM (inactive), the GI50 (RXF 393) was > 100 µM (inactive) and the GI50 (LOX IMVI) was 41 µM (inactive). For the same compound, the GI50 (KM12) was > 100 µM (inactive), the GI50 (HCC 2998) was > 100 µM (inactive) and the GI50 (A498) was > 100 µM (inactive). For the same compound, the GI50 (NCI-H522) was 71.8 µM (inactive), the GI50 (MCF7) was 32.2 µM (inactive) and the GI50 (HCT-15) was > 100 µM. The GI50 (NCI/ADR-RES) was 37.2 µM (inactive), the GI50 (OVCAR-5) was > 100 µM (inactive) and the GI50 (MDA-N) was 27.2 µM (inactive). For the same compound, the GI50 (SK-MEL-28) was 91 µM (inactive), the GI50 (HL-60) was 30.3 µM (inactive) and the GI50 (SF-539) was 24.3 µM (inactive). The GI50 (NCI-H226) was 66.2 µM (inactive), the GI50 (A549) was > 100 µM (inactive) and the GI50 (SK-MEL-2) was > 100 µM (inactive). For the same compound, the GI50 (IGROV-1) was 51.2 µM (inactive), the GI50 (RPMI-8226) was 20.4 µM (inactive) and the GI50 (CAKI-1) was > 100 µM (inactive). For the same compound, the GI50 (MDA-MB-435) was 60.8 µM (inactive), the GI50 (EKVX) was > 100 µM (inactive) and the GI50 (OVCAR-4) was 37.8 µM (inactive). For the same compound, the GI50 (HOP-62) was > 100 µM (inactive), the GI50 (U-251) was 39.3 µM (inactive) and the GI50 (UO-31) was 29.7 µM (inactive). For the same compound, the GI50 (SK-MEL-5) was 57.5 µM (inactive), the GI50 (TK-10) was > 100 µM (inactive) and the GI50 (SN12C) was 46.5 µM (inactive). For the same compound, the GI50 (SK-OV-3) was > 100 µM (inactive), the GI50 (SR) was 31.4 µM (inactive) and the GI50 (UACC-257) was > 100 µM (inactive). The GI50 (HOP-92) was 55.2 µM (inactive), the GI50 (CCRF-CEM) was 27.7 µM (inactive) and the GI50 (DU-145) was 39.1 µM (inactive). For the same compound, the GI50 (COLO 205) was > 100 µM (inactive), the GI50 (SNB-75) was 81.3 µM (inactive) and the GI50 (OVCAR-8) was 35.7 µM (inactive). The GI50 (PC-3) was 61.1 µM (inactive), the GI50 (SF-295) was 89.5 µM (inactive) and the GI50 (NCI-H460) was > 100 µM (inactive). The GI50 (Malme-3M) was > 100 µM (inactive), the GI50 (SNB-19) was 90.2 µM (inactive) and the GI50 (MOLT-4) was 28.2 µM (inactive). The GI50 (M14) was 67 µM (inactive), the GI50 (BT-549) was > 100 µM (inactive) and the GI50 (ACHN) was 74.1 µM (inactive). The GI50 (T47D) was 35.9 µM (inactive), the GI50 (786-0) was > 100 µM (inactive) and the GI50 (HCT-116) was 37.5 µM (inactive). For the same compound, the GI50 (OVCAR-3) was 49.4 µM (inactive), the GI50 (SW-620) was 33.3 µM (inactive) and the GI50 (HT-29) was 41.5 µM (inactive). The GI50 (NCI-H23) was > 100 µM (inactive), the GI50 (UACC-62) was 83.2 µM (inactive) and the GI50 (K562) was 37.3 µM (inactive).
For COC(=O)[C@H](C)NC(=O)[C@H](CSC)N1C(=O)N[C@@H](C(C)C)C1=O, the GI50 (MDA-MB-231) was > 100 µM (inactive), the GI50 (RXF 393) was > 100 µM (inactive) and the GI50 (LOX IMVI) was > 100 µM (inactive). For the same compound, the GI50 (KM12) was > 100 µM (inactive), the GI50 (HCC 2998) was > 100 µM (inactive) and the GI50 (NCI-H522) was > 100 µM (inactive). For the same compound, the GI50 (MCF7) was > 100 µM (inactive), the GI50 (HCT-15) was > 100 µM and the GI50 (NCI/ADR-RES) was > 100 µM (inactive). The GI50 (OVCAR-5) was > 100 µM (inactive), the GI50 (MDA-N) was > 100 µM (inactive) and the GI50 (SK-MEL-28) was > 100 µM (inactive). For the same compound, the GI50 (SF-539) was > 100 µM (inactive), the GI50 (NCI-H226) was > 100 µM (inactive) and the GI50 (A549) was > 100 µM (inactive). For the same compound, the GI50 (SK-MEL-2) was > 100 µM (inactive), the GI50 (IGROV-1) was > 100 µM (inactive) and the GI50 (RPMI-8226) was > 100 µM (inactive). The GI50 (CAKI-1) was > 100 µM (inactive), the GI50 (MDA-MB-435) was > 100 µM (inactive) and the GI50 (EKVX) was > 100 µM (inactive). For the same compound, the GI50 (OVCAR-4) was > 100 µM (inactive), the GI50 (HOP-62) was > 100 µM (inactive) and the GI50 (U-251) was > 100 µM (inactive). The GI50 (UO-31) was > 100 µM (inactive), the GI50 (SK-MEL-5) was > 100 µM (inactive) and the GI50 (TK-10) was > 100 µM (inactive). The GI50 (SN12C) was > 100 µM (inactive), the GI50 (SK-OV-3) was > 100 µM (inactive) and the GI50 (SR) was > 100 µM (inactive). The GI50 (UACC-257) was > 100 µM (inactive), the GI50 (HOP-92) was > 100 µM (inactive) and the GI50 (CCRF-CEM) was 29.6 µM (inactive). The GI50 (DU-145) was > 100 µM (inactive), the GI50 (COLO 205) was > 100 µM (inactive) and the GI50 (SNB-75) was 12.5 µM (inactive). The GI50 (OVCAR-8) was > 100 µM (inactive), the GI50 (PC-3) was > 100 µM (inactive) and the GI50 (SF-295) was > 100 µM (inactive). The GI50 (NCI-H460) was 71.3 µM (inactive), the GI50 (Malme-3M) was 49 µM (inactive) and the GI50 (SNB-19) was > 100 µM (inactive). The GI50 (MOLT-4) was 32.7 µM (inactive), the GI50 (M14) was > 100 µM (inactive) and the GI50 (BT-549) was > 100 µM (inactive). The GI50 (ACHN) was > 100 µM (inactive), the GI50 (T47D) was > 100 µM (inactive) and the GI50 (786-0) was > 100 µM (inactive). The GI50 (HCT-116) was > 100 µM (inactive), the GI50 (OVCAR-3) was > 100 µM (inactive) and the GI50 (SW-620) was > 100 µM (inactive). The GI50 (HT-29) was > 100 µM (inactive), the GI50 (NCI-H23) was > 100 µM (inactive) and the GI50 (UACC-62) was > 100 µM (inactive). The GI50 (K562) was 85.5 µM (inactive).

Reference: ChEMBL document CHEMBL1201862, “PubChem BioAssay data set” (2004)
